Results: ChEMBL document CHEMBL1201862, “PubChem BioAssay data set” (2004)
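Cultured in 96-well plates, cells were exposed to test compound for 48 hours across five concentrations. At the GI50, growth is halved.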 Calls of active or inactive are those of the source. Rule as the data show it: active = GI50 up to about 1.1 µM and inactive = higher.

Key:
Experiment in all cases: NCI anticancer screen, dose series, 48 h
[1] = test system: 786-0
[2] = test system: A498
[3] = test system: A549
[4] = test system: ACHN
[5] = test system: CAKI-1
[6] = test system: CCRF-CEM
[7] = test system: COLO 205
[8] = test system: DLD-1
[9] = test system: DMS-114
[10] = test system: DMS-273
[11] = test system: EKVX
[12] = test system: HCC 2998
[13] = test system: HCT-116
[14] = test system: HCT-15
[15] = test system: HL-60
[16] = test system: HOP-18
[17] = test system: HOP-62
[18] = test system: HOP-92
[19] = test system: HT-29
[20] = test system: IGROV-1
[21] = test system: K562
[22] = test system: KM-20L2
[23] = test system: KM12
[24] = test system: LOX IMVI
[25] = test system: LXFL 529
[26] = test system: M14
[27] = test system: M19-MEL
[28] = test system: MCF7
[29] = test system: Malme-3M
[30] = test system: NCI-H226
[31] = test system: NCI-H23
[32] = test system: NCI-H460
[33] = test system: NCI-H522
[34] = test system: NCI/ADR-RES
[35] = test system: OVCAR-3
[36] = test system: OVCAR-4
[37] = test system: OVCAR-5
[38] = test system: OVCAR-8
[39] = test system: RPMI-8226
[40] = test system: RXF 393
[41] = test system: SF-268
[42] = test system: SF-295
[43] = test system: SF-539
[44] = test system: SK-MEL-28
[45] = test system: SK-MEL-2
[46] = test system: SK-MEL-5
[47] = test system: SK-OV-3
[48] = test system: SN12C
[49] = test system: SNB-19
[50] = test system: SNB-75
[51] = test system: SNB-78
[52] = test system: SW-620
[53] = test system: TK-10
[54] = test system: U-251
[55] = test system: UACC-257
[56] = test system: UACC-62
[57] = test system: UO-31
[58] = test system: XF498
[59] = test system: MOLT-4
[60] = test system: SR

Compound: CN(C)CCNC(=O)c1cc([N+](=O)[O-])cc2ccc(-c3ccccc3)nc12
- GI50 [1]: 16400 nM (inactive)
- GI50 [2]: 3780 nM (inactive)
- GI50 [3]: 7640 nM (inactive)
- GI50 [4]: 10500 nM (inactive)
- GI50 [5]: 10000 nM (inactive)
- GI50 [6]: 3100 nM (inactive)
- GI50 [7]: 6050 nM (inactive)
- GI50 [8]: 9200 nM (inactive)
- GI50 [9]: 7160 nM (inactive)
- GI50 [10]: 5620 nM (inactive)
- GI50 [11]: 24700 nM (inactive)
- GI50 [12]: 7360 nM (inactive)
- GI50 [13]: 3230 nM (inactive)
- GI50 [14]: 7260 nM
- GI50 [15]: 7290 nM (inactive)
- GI50 [16]: 4970 nM (inactive)
- GI50 [17]: 12900 nM (inactive)
- GI50 [18]: 10500 nM (inactive)
- GI50 [19]: 3850 nM (inactive)
- GI50 [20]: 6920 nM (inactive)
- GI50 [21]: 17100 nM (inactive)
- GI50 [22]: 6460 nM (inactive)
- GI50 [23]: 7940 nM (inactive)
- GI50 [24]: 7030 nM (inactive)
- GI50 [25]: 18300 nM (inactive)
- GI50 [26]: 33700 nM (inactive)
- GI50 [27]: 5930 nM (inactive)
- GI50 [28]: 2710 nM (inactive)
- GI50 [29]: 6590 nM (inactive)
- GI50 [30]: 3270 nM (inactive)
- GI50 [31]: 7670 nM (inactive)
- GI50 [32]: 3800 nM (inactive)
- GI50 [33]: 3850 nM (inactive)
- GI50 [34]: 2170 nM (inactive)
- GI50 [35]: 10900 nM (inactive)
- GI50 [36]: 5550 nM (inactive)
- GI50 [37]: 6400 nM (inactive)
- GI50 [38]: 8110 nM (inactive)
- GI50 [39]: 17700 nM (inactive)
- GI50 [40]: 6040 nM (inactive)
- GI50 [41]: 7910 nM (inactive)
- GI50 [42]: 8790 nM (inactive)
- GI50 [43]: 7660 nM (inactive)
- GI50 [44]: 9330 nM (inactive)
- GI50 [45]: 19300 nM (inactive)
- GI50 [46]: 4700 nM (inactive)
- GI50 [47]: 9020 nM (inactive)
- GI50 [48]: 10400 nM (inactive)
- GI50 [49]: 8020 nM (inactive)
- GI50 [50]: 5640 nM (inactive)
- GI50 [51]: 17800 nM (inactive)
- GI50 [52]: 5220 nM (inactive)
- GI50 [53]: 22200 nM (inactive)
- GI50 [54]: 10200 nM (inactive)
- GI50 [55]: 5750 nM (inactive)
- GI50 [56]: 4620 nM (inactive)
- GI50 [57]: 2900 nM (inactive)
- GI50 [58]: 7190 nM (inactive)

Compound: Cc1ccc2[nH]c3c(C)c4ccncc4c(C)c3c2c1
- GI50 [2]: 1500 nM (inactive)
- GI50 [3]: 966 nM (active)
- GI50 [4]: 1090 nM (active)
- GI50 [5]: 906 nM (active)
- GI50 [6]: 242 nM (active)
- GI50 [7]: 873 nM (active)
- GI50 [8]: 333 nM (active)
- GI50 [9]: 369 nM (active)
- GI50 [10]: 155 nM (active)
- GI50 [11]: 1470 nM (inactive)
- GI50 [12]: 1480 nM (inactive)
- GI50 [13]: 322 nM (active)
- GI50 [14]: 630 nM
- GI50 [15]: 1220 nM (inactive)
- GI50 [16]: 252 nM (active)
- GI50 [17]: 1190 nM (inactive)
- GI50 [18]: 553 nM (active)
- GI50 [19]: 1060 nM (active)
- GI50 [20]: 944 nM (active)
- GI50 [21]: 519 nM (active)
- GI50 [22]: 815 nM (active)
- GI50 [23]: 614 nM (active)
- GI50 [24]: 871 nM (active)
- GI50 [25]: 1150 nM (inactive)
- GI50 [26]: 1670 nM (inactive)
- GI50 [27]: 1360 nM (inactive)
- GI50 [28]: 908 nM (active)
- GI50 [59]: 231 nM (active)
- GI50 [29]: 1900 nM (inactive)
- GI50 [30]: 1720 nM (inactive)
- GI50 [31]: 1240 nM (inactive)
- GI50 [32]: 456 nM (active)
- GI50 [33]: 929 nM (active)
- GI50 [34]: 513 nM (active)
- GI50 [35]: 1120 nM (active)
- GI50 [36]: 1080 nM (active)
- GI50 [37]: 1370 nM (inactive)
- GI50 [38]: 328 nM (active)
- GI50 [39]: 1090 nM (active)
- GI50 [40]: 226 nM (active)
- GI50 [41]: 733 nM (active)
- GI50 [42]: 1080 nM (active)
- GI50 [43]: 1330 nM (inactive)
- GI50 [44]: 1550 nM (inactive)
- GI50 [45]: 1590 nM (inactive)
- GI50 [46]: 1600 nM (inactive)
- GI50 [47]: 2230 nM (inactive)
- GI50 [48]: 449 nM (active)
- GI50 [49]: 1240 nM (inactive)
- GI50 [50]: 1650 nM (inactive)
- GI50 [51]: 1730 nM (inactive)
- GI50 [60]: 528 nM (active)
- GI50 [52]: 384 nM (active)
- GI50 [53]: 3810 nM (inactive)
- GI50 [54]: 1160 nM (inactive)
- GI50 [55]: 1410 nM (inactive)
- GI50 [56]: 1620 nM (inactive)
- GI50 [57]: 1580 nM (inactive)
- GI50 [58]: 1600 nM (inactive)
